Test results: patent US8471005B2 (Cephalon, Inc., priority 2008, dated 2013)

Experiments:
JAK2 = target: T1, JAK2 (Homo sapiens, UniProt O60674); assay: Recombinant Human JAK2 Kinase Assay (TRF); assay type: biochemical; details: JAK2 kinase inhibition, 0.2 μM ATP; read-out: JAK2 Potency
T1 construct: host or cells: baculovirus expression system
Summary of the method: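 TRF read-out: Eu-N1 PY100 anti-phosphotyrosine antibody detects product. Enzyme is baculovirus-expressed JAK2 at 15 ng/ml; substrate is a biotinyl 15-mer peptide bound to Neutravidin-coated wells. Buffer 20 mM HEPES pH 7.2, 0.2 μM ATP, 1 mM MnCl2, 0.1% BSA, 2.5% DMSO final; 20 min, RT.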

ALK = target: T2, ALK (Homo sapiens, UniProt Q9UM73); assay: ALK Kinase Assay (ELISA/TRF, PLC-γ substrate); assay type: biochemical; details: ALK kinase inhibition, 1 μM ATP; read-out: ALK Potency
T2 construct: host or cells: baculovirus expression system
Summary of the method: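 Read-out is time-resolved fluorescence from a Eu-N1-labeled PT66 antibody that binds phosphorylated PLC-γ, the substrate coated at 10 μg/mL in TBS. ALK at 30 ng/ml starts the reaction, which runs 15 minutes at 37° C.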

T2 sequence (Q9UM73 19-1620): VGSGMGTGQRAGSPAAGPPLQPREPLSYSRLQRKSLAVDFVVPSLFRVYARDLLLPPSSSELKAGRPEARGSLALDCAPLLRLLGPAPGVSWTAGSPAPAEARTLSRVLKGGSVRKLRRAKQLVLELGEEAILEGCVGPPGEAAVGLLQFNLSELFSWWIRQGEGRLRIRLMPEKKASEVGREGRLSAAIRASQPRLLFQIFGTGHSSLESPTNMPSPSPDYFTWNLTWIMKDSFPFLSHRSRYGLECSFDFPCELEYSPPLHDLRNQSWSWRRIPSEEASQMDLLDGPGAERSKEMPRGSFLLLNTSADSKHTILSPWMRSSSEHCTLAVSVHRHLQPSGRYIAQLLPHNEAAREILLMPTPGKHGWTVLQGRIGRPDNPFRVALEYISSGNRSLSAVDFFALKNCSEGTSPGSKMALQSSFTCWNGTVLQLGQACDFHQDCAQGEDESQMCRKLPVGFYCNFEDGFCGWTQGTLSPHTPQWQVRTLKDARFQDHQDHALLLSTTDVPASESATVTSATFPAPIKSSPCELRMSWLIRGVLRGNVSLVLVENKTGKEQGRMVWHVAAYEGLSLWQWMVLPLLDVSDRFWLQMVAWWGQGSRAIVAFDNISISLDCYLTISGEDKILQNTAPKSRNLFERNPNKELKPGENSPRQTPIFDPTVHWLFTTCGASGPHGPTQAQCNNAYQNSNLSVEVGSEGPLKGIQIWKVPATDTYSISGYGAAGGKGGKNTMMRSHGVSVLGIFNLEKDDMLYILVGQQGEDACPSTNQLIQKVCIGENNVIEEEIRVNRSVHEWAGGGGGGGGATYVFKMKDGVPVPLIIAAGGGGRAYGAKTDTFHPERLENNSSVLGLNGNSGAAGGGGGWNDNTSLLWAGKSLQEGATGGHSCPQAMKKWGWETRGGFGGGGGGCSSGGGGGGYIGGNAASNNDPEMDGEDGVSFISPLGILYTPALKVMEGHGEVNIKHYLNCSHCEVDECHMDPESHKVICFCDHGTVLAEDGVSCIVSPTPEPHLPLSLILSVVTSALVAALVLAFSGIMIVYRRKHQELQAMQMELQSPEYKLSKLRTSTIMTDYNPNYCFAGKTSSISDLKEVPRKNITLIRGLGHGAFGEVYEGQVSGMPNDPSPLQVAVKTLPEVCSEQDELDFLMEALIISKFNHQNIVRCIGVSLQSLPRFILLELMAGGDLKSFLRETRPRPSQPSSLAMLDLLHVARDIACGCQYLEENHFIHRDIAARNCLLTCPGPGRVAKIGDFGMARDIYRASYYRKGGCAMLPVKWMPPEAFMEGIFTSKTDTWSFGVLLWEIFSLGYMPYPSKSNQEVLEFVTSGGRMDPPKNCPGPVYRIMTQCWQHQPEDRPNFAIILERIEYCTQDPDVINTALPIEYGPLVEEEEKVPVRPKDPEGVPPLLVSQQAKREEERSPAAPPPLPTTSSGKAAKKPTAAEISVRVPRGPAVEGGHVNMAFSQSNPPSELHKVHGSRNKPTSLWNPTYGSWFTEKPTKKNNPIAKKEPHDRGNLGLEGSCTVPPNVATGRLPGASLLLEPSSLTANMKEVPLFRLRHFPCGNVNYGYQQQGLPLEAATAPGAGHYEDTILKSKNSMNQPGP
T1 sequence (O60674 whole entry): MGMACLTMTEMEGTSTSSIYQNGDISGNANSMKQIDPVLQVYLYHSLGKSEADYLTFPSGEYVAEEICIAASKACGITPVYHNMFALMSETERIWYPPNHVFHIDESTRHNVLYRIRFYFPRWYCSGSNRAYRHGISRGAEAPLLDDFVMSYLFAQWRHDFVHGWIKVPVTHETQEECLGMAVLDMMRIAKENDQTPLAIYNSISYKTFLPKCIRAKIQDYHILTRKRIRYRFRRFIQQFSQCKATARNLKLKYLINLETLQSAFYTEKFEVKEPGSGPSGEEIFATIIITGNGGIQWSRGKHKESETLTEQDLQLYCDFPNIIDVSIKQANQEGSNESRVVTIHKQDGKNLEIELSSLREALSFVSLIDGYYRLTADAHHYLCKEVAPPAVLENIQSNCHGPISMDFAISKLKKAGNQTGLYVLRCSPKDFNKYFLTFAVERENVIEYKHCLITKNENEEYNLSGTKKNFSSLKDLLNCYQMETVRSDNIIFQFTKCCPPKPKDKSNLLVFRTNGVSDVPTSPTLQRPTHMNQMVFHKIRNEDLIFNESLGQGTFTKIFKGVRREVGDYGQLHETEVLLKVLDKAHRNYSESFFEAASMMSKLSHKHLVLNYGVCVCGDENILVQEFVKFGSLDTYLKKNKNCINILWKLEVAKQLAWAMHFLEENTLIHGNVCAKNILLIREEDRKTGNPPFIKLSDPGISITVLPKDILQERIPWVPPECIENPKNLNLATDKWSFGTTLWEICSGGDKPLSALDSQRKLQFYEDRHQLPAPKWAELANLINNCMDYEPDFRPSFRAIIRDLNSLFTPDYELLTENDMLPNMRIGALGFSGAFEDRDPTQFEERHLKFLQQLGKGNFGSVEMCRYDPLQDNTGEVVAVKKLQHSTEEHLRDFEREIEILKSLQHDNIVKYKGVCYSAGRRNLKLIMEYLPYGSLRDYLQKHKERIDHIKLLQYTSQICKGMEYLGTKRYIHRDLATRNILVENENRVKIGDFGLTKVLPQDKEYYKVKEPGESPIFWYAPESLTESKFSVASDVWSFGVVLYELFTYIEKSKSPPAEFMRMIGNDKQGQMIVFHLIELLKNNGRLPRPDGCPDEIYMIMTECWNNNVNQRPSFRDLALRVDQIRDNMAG

Compound | IC50 (JAK2) [nM] | IC50 (ALK) [nM]
COc1cc(N(C)C(=O)CN2CCN(C)CC2)ccc1Nc1ncc2ccc(-c3ccccc3OC)n2n1 [Example 474, N-{3-Methoxy-4-[7-(2-methoxy-phenyl)-pyrrolo[2,1-f][1,2,4]triazin-2-ylamino]-phenyl}-N-methyl-2-(4-methyl-piperazin-1-yl)-acetamide] | 1000 to 10000 | < 100
COc1cc(N2CCC(N(C)C)CC2)ccc1Nc1ncc2ccc(-c3ccccc3N(C)S(C)(=O)=O)n2n1 [Example 475, N-(2-{2-[4-(4-Dimethylamino-piperidin-1-yl)-2-methoxy-phenylamino]-pyrrolo[2,1-f][1,2,4]triazin-7-yl}-phenyl)-N-methyl-methanesulfonamide] | 100 to 1000 | < 100
COc1cc(N2CCC(N(C)C)CC2)ccc1Nc1ncc2ccc(-c3ccccc3OC)n2n1 [Example 476, [4-(4-Dimethylamino-piperidin-1-yl)-2-methoxy-phenyl]-[7-(2-methoxy-phenyl)-pyrrolo[2,1-f][1,2,4]triazin-2-yl]-amine] | < 100 | < 100
COc1cc(N2CCC(N(C)C)CC2)ccc1Nc1ncc2ccc(-c3ccc(S(C)(=O)=O)cc3)n2n1 [Example 477, [4-(4-Dimethylamino-piperidin-1-yl)-2-methoxy-phenyl]-[7-(4-methanesulfonyl-phenyl)-pyrrolo[2,1-f][1,2,4]triazin-2-yl]-amine] | < 100 | < 100
COc1cc(N2CCC(N3CC[C@@H](O)C3)CC2)ccc1Nc1ncc2ccc(-c3ccccc3N(C)S(C)(=O)=O)n2n1 [Example 478, N-[2-(2-{4-[4-((R)-3-Hydroxy-pyrrolidin-1-yl)-piperidin-1-yl]-2-methoxy-phenylamino}-pyrrolo[2,1-f][1,2,4]triazin-7-yl)-phenyl]-N-methyl-methanesulfonamide] | < 100 | < 100
COc1cc(N2CCC(N3CC[C@@H](O)C3)CC2)ccc1Nc1ncc2ccc(-c3ccccc3OC)n2n1 [Example 479, (R)-1-(1-{3-Methoxy-4-[7-(2-methoxy-phenyl)-pyrrolo[2,1-f][1,2,4]triazin-2-ylamino]-phenyl}-piperidin-4-yl)-pyrrolidin-3-ol] | < 100 | < 100
COc1cc(N2CCC(N3CCCC3)CC2)ccc1Nc1ncc2ccc(-c3ccccc3N(C)S(C)(=O)=O)n2n1 [Example 480, N-(2-{2-[2-Methoxy-4-(4-pyrrolidin-1-yl-piperidin-1-yl)-phenylamino]-pyrrolo[2,1-f][1,2,4]triazin-7-yl}-phenyl)-N-methyl-methanesulfonamide] | 1000 to 10000 | < 100
COc1cc(N2CCC(N3CCCC3)CC2)ccc1Nc1ncc2ccc(-c3ccccc3OC)n2n1 [Example 481, [7-(2-Methoxy-phenyl)-pyrrolo[2,1-f][1,2,4]triazin-2-yl]-[2-methoxy-4-(4-pyrrolidin-1-yl-piperidin-1-yl)-phenyl]-amine] | 100 to 1000 | < 100
COc1cc(N2CCC3(CC2)OCCO3)ccc1Nc1ncc2ccc(-c3ccccc3OC)n2n1 [Example 482, [4-(1,4-Dioxa-8-aza-spiro[4.5]dec-8-yl)-2-methoxy-phenyl]-[7-(2-methoxy-phenyl)-pyrrolo[2,1-f][1,2,4]triazin-2-yl]-amine] | 100 to 1000 | 100 to 1000
COc1cc(N2CCC(N3CC[C@H](O)C3)CC2)ccc1Nc1ncc2ccc(-c3ccccc3OC)n2n1 [Example 483, (S)-1-(1-{3-Methoxy-4-[7-(2-methoxy-phenyl)-pyrrolo[2,1-f][1,2,4]triazin-2-ylamino]-phenyl}-piperidin-4-yl)-pyrrolidin-3-ol] | 100 to 1000 | < 100
COc1cc(Cl)ccc1-c1ccc2cnc(Nc3ccc(N4CCC(C(=O)N5CCN(C)CC5)CC4)cc3)nn12 [Example 484, (1-{4-[7-(4-Chloro-2-methoxy-phenyl)-pyrrolo[2,1-f][1,2,4]triazin-2-ylamino]-phenyl}-piperidin-4-yl)-(4-methyl-piperazin-1-yl)-methanone] | < 100 | < 100
CN1CCN(C(=O)C2CCN(c3ccc(Nc4ncc5ccc(-c6ccc(Cl)cc6O)n5n4)cc3)CC2)CC1 [Example 485, (1-{4-[7-(4-Chloro-2-hydroxy-phenyl)-pyrrolo[2,1-f][1,2,4]triazin-2-ylamino]-phenyl}-piperidin-4-yl)-(4-methyl-piperazin-1-yl)-methanone] | < 100 | 100 to 1000
COc1cc(N2CCC(N3CCOCC3)CC2)ccc1Nc1ncc2ccc(-c3ccc(Cl)cc3OC)n2n1 [Example 486, [7-(4-Chloro-2-methoxy-phenyl)-pyrrolo[2,1-f][1,2,4]triazin-2-yl]-[2-methoxy-4-(4-morpholin-4-yl-piperidin-1-yl)-phenyl]-amine] | < 100 | < 100
COc1cc(CCN2CCN(C)CC2)ccc1Nc1ncc2ccc(-c3ccccc3OC)n2n1 [Example 488, {2-Methoxy-4-[2-(4-methyl-piperazin-1-yl)-ethyl]-phenyl}-[7-(2-methoxy-phenyl)-pyrrolo[2,1-f][1,2,4]triazin-2-yl]-amine] | 100 to 1000 | < 100
COc1cc(C(=O)N2CCN(C)CC2)ccc1Nc1ncc2ccc(-c3ccccc3OC)n2n1 [Example 489, {3-Methoxy-4-[7-(2-methoxy-phenyl)-pyrrolo[2,1-f][1,2,4]triazin-2-ylamino]-phenyl}-(4-methyl-piperazin-1-yl)-methanone] | 100 to 1000 | 100 to 1000
COc1cc(C(=O)N2CCN(C)CC2)ccc1Nc1ncc2ccc(-c3ccccc3N(C)S(C)(=O)=O)n2n1 [Example 490, N-(2-{2-[2-Methoxy-4-(4-methyl-piperazine-1-carbonyl)-phenylamino]-pyrrolo[2,1-f][1,2,4]triazin-7-yl}-phenyl)-N-methyl-methanesulfonamide] | 1000 to 10000 | 100 to 1000
COc1cc(CCN2CCN(C)CC2)ccc1Nc1ncc2ccc(-c3ccccc3N(C)S(C)(=O)=O)n2n1 [Example 491, N-[2-(2-{2-Methoxy-4-[2-(4-methyl-piperazin-1-yl)-ethyl]-phenylamino}-pyrrolo[2,1-f][1,2,4]triazin-7-yl)-phenyl]-N-methyl-methanesulfonamide] | 100 to 1000 | < 100
COc1cc(CCN2CCOCC2)ccc1Nc1ncc2ccc(-c3ccccc3OC)n2n1 [Example 492, [2-Methoxy-4-(2-morpholin-4-yl-ethyl)-phenyl]-[7-(2-methoxy-phenyl)-pyrrolo[2,1-f][1,2,4]triazin-2-yl]-amine] | 100 to 1000 | < 100
COc1cc(CCN2CCOCC2)ccc1Nc1ncc2ccc(-c3ccccc3N(C)S(C)(=O)=O)n2n1 [Example 493, N-(2-{2-[2-Methoxy-4-(2-morpholin-4-yl-ethyl)-phenylamino]-pyrrolo[2,1-f][1,2,4]triazin-7-yl}-phenyl)-N-methyl-methanesulfonamide] | 100 to 1000 | < 100
COc1ccc(C(=O)N2CCN(C)CC2)cc1Nc1ncc2ccc(-c3ccccc3OC)n2n1 [Example 494, {4-Methoxy-3-[7-(2-methoxy-phenyl)-pyrrolo[2,1-f][1,2,4]triazin-2-ylamino]-phenyl}-(4-methyl-piperazin-1-yl)-methanone] | > 10000 | 1000 to 10000
COc1ccc(CN2CCN(C)CC2)cc1Nc1ncc2ccc(-c3ccccc3OC)n2n1 [Example 495, [2-Methoxy-5-(4-methyl-piperazin-1-ylmethyl)-phenyl]-[7-(2-methoxy-phenyl)-pyrrolo[2,1-f][1,2,4]triazin-2-yl]-amine] | < 100 | 1000 to 10000
COc1ccc(C(=O)N2CCN(C)CC2)cc1Nc1ncc2ccc(-c3ccccc3N(C)S(C)(=O)=O)n2n1 [Example 496, N-(2-{2-[2-Methoxy-5-(4-methyl-piperazine-1-carbonyl)-phenylamino]-pyrrolo[2,1-f][1,2,4]triazin-7-yl}-phenyl)-N-methyl-methanesulfonamide] | > 10000 | 1000 to 10000
COc1ccc(CN2CCN(C)CC2)cc1Nc1ncc2ccc(-c3ccccc3N(C)S(C)(=O)=O)n2n1 [Example 497, N-(2-{2-[2-Methoxy-5-(4-methyl-piperazin-1-ylmethyl)-phenylamino]-pyrrolo[2,1-f][1,2,4]triazin-7-yl}-phenyl)-N-methyl-methanesulfonamide] | 1000 to 10000 | 1000 to 10000
COc1ccc(CN2CCOCC2)cc1Nc1ncc2ccc(-c3ccccc3N(C)S(C)(=O)=O)n2n1 [Example 498, N-{2-[2-(2-Methoxy-5-morpholin-4-ylmethyl-phenylamino)-pyrrolo[2,1-f][1,2,4]triazin-7-yl]-phenyl}-N-methyl-methanesulfonamide] | 1000 to 10000 | 1000 to 10000
COc1ccc(CN2CCOCC2)cc1Nc1ncc2ccc(-c3ccccc3OC)n2n1 [Example 499, (2-Methoxy-5-morpholin-4-ylmethyl-phenyl)-[7-(2-methoxy-phenyl)-pyrrolo[2,1-f][1,2,4]triazin-2-yl]-amine] | 100 to 1000 | 1000 to 10000
COc1ccccc1-c1ccc2cnc(Nc3ccc(C4CCN(C(=O)C5CCN(C)CC5)CC4)cc3)nn12 [Example 500, (4-{4-[7-(2-Methoxy-phenyl)-pyrrolo[2,1-f][1,2,4]triazin-2-ylamino]-phenyl}-piperidin-1-yl)-(1-methyl-piperidin-4-yl)-methanone] | < 100 | < 100
COc1ccccc1-c1ccc2cnc(Nc3ccc(C4CCN(C(=O)N5CCN(C)CC5)CC4)cc3)nn12 [Example 501, (4-{4-[7-(2-Methoxy-phenyl)-pyrrolo[2,1-f][1,2,4]triazin-2-ylamino]-phenyl}-piperidin-1-yl)-(4-methyl-piperazin-1-yl)-methanone] | < 100 | < 100
